Measurements: the supplement of paper PMC10307832

Legend:
Assay in all cases: relative viability (nuclei count vs DMSO), 5 days (fraction); higher = more cells survive
Bexarotene + AZD7762 = compound: C=C(c1ccc(C(=O)O)cc1)c1cc2c(cc1C)C(C)(C)CCC2(C)C [Bexarotene] + NC(=O)Nc1cc(-c2cccc(F)c2)sc1C(=O)N[C@H]1CCCNC1 [AZD7762] (partner 0.2 µM)
Outline: (§1)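 Cells from lung cancer lines were seeded into 1536-well plates and, one day later, dosed by pin tool. Treatments were either a single drug or a fixed dose of an anchor drug with five library-drug doses (not always all listed) in √10 steps. After 5 days, nuclei were stained in a one-step fixation (final 0.05% Triton X-100, 1% formaldehyde, 1 ug/ml Hoechst) and counted on 4× images, and relative viability is the treated-to-vehicle nuclei ratio, as the median of duplicate plates.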

Bexarotene + Pictilisib = compound: C=C(c1ccc(C(=O)O)cc1)c1cc2c(cc1C)C(C)(C)CCC2(C)C [Bexarotene] + CS(=O)(=O)N1CCN(Cc2cc3nc(-c4cccc5[nH]ncc45)nc(N4CCOCC4)c3s2)CC1 [Pictilisib] (partner 1 µM)
Outline: as §1

Bexarotene + Phenformin = compound: C=C(c1ccc(C(=O)O)cc1)c1cc2c(cc1C)C(C)(C)CCC2(C)C [Bexarotene] + N=C(N)NC(=N)NCCc1ccccc1 [Phenformin] (partner 250 µM)
Outline: as §1

Bexarotene + Alpelisib = compound: C=C(c1ccc(C(=O)O)cc1)c1cc2c(cc1C)C(C)(C)CCC2(C)C [Bexarotene] + Cc1nc(NC(=O)N2CCC[C@H]2C(N)=O)sc1-c1ccnc(C(C)(C)C(F)(F)F)c1 [Alpelisib] (partner 2 µM)
Outline: as §1

Cell Line	relative viability (Bexarotene + AZD7762; first compound 0.08 µM)	relative viability (Bexarotene + AZD7762; first compound 0.253 µM)	relative viability (Bexarotene + AZD7762; first compound 0.8 µM)	relative viability (Bexarotene + AZD7762; first compound 2.53 µM)	relative viability (Bexarotene + AZD7762; first compound 8 µM)	relative viability (Bexarotene + Pictilisib; first compound 0.08 µM)	relative viability (Bexarotene + Pictilisib; first compound 0.253 µM)	relative viability (Bexarotene + Pictilisib; first compound 0.8 µM)	relative viability (Bexarotene + Pictilisib; first compound 2.53 µM)	relative viability (Bexarotene + Pictilisib; first compound 8 µM)	relative viability (Bexarotene + Phenformin; first compound 0.08 µM)	relative viability (Bexarotene + Phenformin; first compound 0.253 µM)	relative viability (Bexarotene + Phenformin; first compound 0.8 µM)	relative viability (Bexarotene + Phenformin; first compound 2.53 µM)	relative viability (Bexarotene + Phenformin; first compound 8 µM)	relative viability (Bexarotene + Alpelisib; first compound 0.08 µM)	relative viability (Bexarotene + Alpelisib; first compound 0.253 µM)	relative viability (Bexarotene + Alpelisib; first compound 0.8 µM)	relative viability (Bexarotene + Alpelisib; first compound 2.53 µM)	relative viability (Bexarotene + Alpelisib; first compound 8 µM)
201T	0.796	0.612	0.714	0.591	0.514	0.745	0.631	0.612	0.639	0.596	0.582	0.516	0.5	0.519	0.458	1.02	0.991	0.941	0.916	0.909
A-427	0.79	0.71	0.736	0.691	0.688	0.79	0.667	0.613	0.537	0.569	0.322	0.305	0.348	0.3	0.307	1.08	1.02	0.89	0.89	0.926
ABC-1	0.729	0.797	0.747	0.667	0.876	0.662	0.63	0.606	0.697	0.615	0.239	0.225	0.215	0.303	0.285	0.714	0.892	0.949	0.953	0.87
BEN	0.759	0.585	0.613	0.612	0.695	0.674	0.576	0.495	0.452	0.571	0.289	0.27	0.268	0.214	0.279	1.03	0.962	0.898	0.836	0.893
CAL-12T	0.649	0.549	0.603	0.427	0.513	0.333		0.396		0.361	0.578	0.511	0.572	0.513	0.519	1.29	1.3	1.33	1.17	0.94
COR-L23						0.735	0.759	0.5	0.67	0.52	0.411	0.512	0.395	0.383	0.364	0.872	0.768	0.555	0.685	0.757
COR-L 105						0.473	0.397	0.331	0.385	0.39	0.614	0.472	0.519	0.517	0.569	0.928	0.977	1.04	1.14	0.916
Calu-6						0.944	0.926	0.911	1.11	0.884						1.12	0.917	0.934	0.958	1.05
ChaGo-K-1	0.934	0.828	0.813	0.832	0.873	0.902	0.679	0.875		0.801	0.563	0.496	0.539	0.533	0.536					
EBC-1						0.395	0.481	0.476	0.474	0.475						1.22	0.989	0.756	0.89	0.868
EKVX	0.804	0.848	0.822	0.828	0.634	0.352	0.432	0.446	0.357	0.404	0.257	0.263	0.224	0.233	0.233	0.889	0.855	0.781	0.849	0.76
EMC-BAC-2	1.17	1.09	1.06		1.08	0.618	0.561	0.52	0.554	0.469	0.549	0.575	0.521	0.49	0.546	0.748	0.735	0.705	0.73	0.719
EPLC-272H	0.199	0.259	0.517	0.208	0.271	0.373	0.308	0.33	0.298	0.352	0.304	0.27	0.313	0.3	0.373	0.9	0.97	0.884	0.901	0.911
H3255	0.948	0.941	0.975	0.851	1.05	0.574	0.504	0.607	0.493	0.528	0.391	0.336	0.382	0.419	0.416	0.655	0.789	0.715	0.862	0.72
HARA	0.336	0.272	0.412	0.303	0.262	0.407	0.317	0.377	0.32	0.41	0.523	0.448	0.375	0.398	0.39	0.705	0.714	0.456	0.52	0.597
HCC-15	1.23	1.17	1.27	1.1	1.44	0.798	0.743	0.656	0.644	0.632	0.524	0.533	0.472	0.496	0.475	0.91	0.849	0.845	0.816	0.788
HCC-44	0.978	1.12	0.927	0.967	0.964	0.661	0.663	0.479	0.579	0.459	0.148	0.409	0.27	0.145	0.289	0.894	0.855	0.741	0.735	0.722

Cell Line	relative viability (Bexarotene + AZD7762; first compound 0.08 µM)	relative viability (Bexarotene + AZD7762; first compound 0.253 µM)	relative viability (Bexarotene + AZD7762; first compound 0.8 µM)	relative viability (Bexarotene + AZD7762; first compound 2.53 µM)	relative viability (Bexarotene + AZD7762; first compound 8 µM)	relative viability (Bexarotene + Pictilisib; first compound 0.08 µM)	relative viability (Bexarotene + Pictilisib; first compound 0.253 µM)	relative viability (Bexarotene + Pictilisib; first compound 0.8 µM)	relative viability (Bexarotene + Pictilisib; first compound 2.53 µM)	relative viability (Bexarotene + Pictilisib; first compound 8 µM)	relative viability (Bexarotene + Phenformin; first compound 0.08 µM)	relative viability (Bexarotene + Phenformin; first compound 0.253 µM)	relative viability (Bexarotene + Phenformin; first compound 0.8 µM)	relative viability (Bexarotene + Phenformin; first compound 2.53 µM)	relative viability (Bexarotene + Phenformin; first compound 8 µM)	relative viability (Bexarotene + Alpelisib; first compound 0.08 µM)	relative viability (Bexarotene + Alpelisib; first compound 0.253 µM)	relative viability (Bexarotene + Alpelisib; first compound 0.8 µM)	relative viability (Bexarotene + Alpelisib; first compound 2.53 µM)	relative viability (Bexarotene + Alpelisib; first compound 8 µM)
HCC-78	0.638	0.391	0.542	0.554	0.638	0.228	0.196	0.215	0.182	0.194	1.01	0.732	0.599	0.596	0.73	0.315	0.268	0.28	0.25	0.259
IA-LM						0.335	0.314	0.476	0.313	0.319						0.771	0.702	0.67	0.581	0.669
NCI-H520						0.324	0.244	0.293	0.286	0.235	0.643	0.485	0.514	0.445	0.417	0.99	0.775	0.708	0.826	0.803
NCI-H661						0.438	0.362	0.397	0.362	0.35	0.314	0.296	0.261	0.283	0.272	0.664	0.587	0.776	0.5	0.645
NCI-H1299						0.954	0.893	0.661	0.733	0.596						1.05	1.13	1.12	1.05	1.05
NCI-H1563						0.736	0.647	0.685	0.696	0.661	0.682	0.665	0.669	0.674	0.619	0.947	0.804	0.955	0.973	0.839
NCI-H1648	0.615	0.57	0.623	0.695	0.627															
NCI-H1650						0.669	0.544	0.527	0.537	0.527	0.392	0.408	0.463	0.46	0.403					
NCI-H1703	0.157	0.128	0.127	0.115	0.119	0.247	0.239	0.209	0.247	0.262						0.423	0.364	0.402	0.242	0.324
NCI-H2009						0.96	0.959	0.723	0.818	0.8	0.554	0.527	0.526	0.479	0.479	1.27	1.23	1.11	1.17	1.06
NCI-H2023						0.326	0.245	0.241	0.252	0.222	0.437	0.483	0.443	0.422	0.344	0.622	0.618	0.615	0.548	0.57
NCI-H2228						0.476	0.572	0.358	0.454	0.336	0.31	0.372	0.276	0.264	0.3	0.669	0.722	0.609	0.629	0.499
SK-LU-1						0.717	0.663		0.567	0.63	0.633	0.667		0.417	0.387	1.11	1.06		0.97	0.988
SK-MES-1						0.397	0.408	0.466	0.329	0.399	0.751	0.717	0.67	0.615	0.558	1.06	0.948	0.961	0.893	0.956
SW 900	0.652	0.511	0.453	0.518	0.454						0.643	0.64	0.598	0.46	0.572					
SW 1573						0.554	0.459	0.447	0.42	0.436	0.374	0.328	0.332	0.273	0.297	0.706	0.454	0.51	0.454	0.422
UMC-11						0.973	0.814	0.756	0.805	0.802	0.372	0.327	0.314	0.301	0.295	0.971	1.02	0.954	1.04	0.955
